Experimental data reported in patent US11414429B2, “Compound or pharmaceutically acceptable salt thereof” (RIKEN, priority 2016, dated 2022).
Like-named read-outs stand apart in the source and are kept apart here. Each block holds one molecule with its values, some of them ahead of it.

How the values were obtained:
tankyrase 1 (TNKS 1) = molecular target: T1, tankyrase 1 (TNKS 1) (Homo sapiens, UniProt O95271); test: Tankyrase inhibitory activity test (ELISA, self-polyADP ribosylation), tankyrase 1; type: biochemical; settings: self-polyADP ribosylation
T1 construct: 1,024-1,327aa; made in house; host or cells: cell-free protein synthesis system
T1 sequence (O95271 1024-1327): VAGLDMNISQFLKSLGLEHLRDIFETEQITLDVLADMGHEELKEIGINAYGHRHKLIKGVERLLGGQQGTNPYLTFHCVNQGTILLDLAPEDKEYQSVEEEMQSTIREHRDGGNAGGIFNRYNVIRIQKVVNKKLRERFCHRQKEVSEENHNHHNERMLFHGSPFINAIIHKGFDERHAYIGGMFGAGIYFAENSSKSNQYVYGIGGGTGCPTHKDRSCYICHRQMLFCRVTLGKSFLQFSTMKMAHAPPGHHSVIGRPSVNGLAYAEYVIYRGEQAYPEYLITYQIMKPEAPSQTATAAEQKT
Summary of the method: (§1)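 IC50 was fitted to residual self-polyADP-ribosylation activity, detected by HRP-streptavidin chemiluminescence. Plate-bound Flag fusions (TNKS1 1,024-1,327aa SAM+PARP; TNKS2 613-1,116aa ANK5+SAM+PARP, cell-free synthesized) saw compound for 10 min at room temperature in 50 mM Tris-HCl pH 8.0, 4 mM MgCl2, 0.2 mM DTT. Reaction with 225 μM NAD/25 μM 6-biotin-17-NAD solution ran 45 min at 30 °C.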

tankyrase 2 (TNKS 2) = molecular target: T2, tankyrase 2 (TNKS 2) (Homo sapiens, UniProt Q9H2K2); test: Tankyrase inhibitory activity test (ELISA, self-polyADP ribosylation), tankyrase 2; type: biochemical; settings: self-polyADP ribosylation
T2 construct: 613-1, 116aa; made in house; host or cells: cell-free protein synthesis system
T2 sequence (Q9H2K2 613-1166): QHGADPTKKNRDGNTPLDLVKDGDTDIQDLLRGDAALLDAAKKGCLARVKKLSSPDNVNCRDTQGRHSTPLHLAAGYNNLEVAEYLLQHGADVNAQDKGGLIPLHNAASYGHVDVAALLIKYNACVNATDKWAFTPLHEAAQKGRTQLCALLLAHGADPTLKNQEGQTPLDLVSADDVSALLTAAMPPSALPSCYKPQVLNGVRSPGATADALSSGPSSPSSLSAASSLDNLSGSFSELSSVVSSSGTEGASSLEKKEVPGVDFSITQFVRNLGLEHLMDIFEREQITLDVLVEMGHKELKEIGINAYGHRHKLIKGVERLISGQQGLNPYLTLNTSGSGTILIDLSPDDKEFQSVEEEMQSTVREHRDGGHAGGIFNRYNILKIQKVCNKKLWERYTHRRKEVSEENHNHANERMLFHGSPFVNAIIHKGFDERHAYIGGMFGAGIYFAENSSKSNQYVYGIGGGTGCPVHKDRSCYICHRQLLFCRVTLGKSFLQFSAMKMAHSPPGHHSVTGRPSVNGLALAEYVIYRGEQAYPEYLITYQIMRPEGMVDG
Summary of the method: as §1

[1] = tested on: human colorectal cancer cell line, COLO-320DM; test: Cell proliferation inhibitory activity test (Celltiter-Glo Luminescent Cell Viability Assay); type: cell-based; settings: COLO-320DM cells, 96 hours
Summary of the method: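 GI50 is taken as the concentration halving cell growth versus 1% DMSO control, measured by ATP luminescence. Compound exposure lasted 96 h at 37° C. under 5% CO2, after overnight seeding in RPMI-1640 with 10% FBS and 2 mM glutamine.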

[2] = ELISA, class symbols, read-out: TNKS1 (inhibitory activity against tankyrase 1, IC50 value)
[3] = ELISA, class symbols, read-out: TNKS2 (inhibitory activity against tankyrase 2, IC50 value)
[4] = class symbols, read-out: COLO-320 DM (cell proliferation inhibitory activity, GI50 value)
[5] = tankyrase 1, ELISA, read-out: TNKS1 inhibitory activity (IC50 class)
[6] = tankyrase 2, ELISA, read-out: TNKS2 inhibitory activity (IC50 class)
[7] = read-out: COLO-320 DM cell proliferation inhibitory activity (GI50 class)

IC50 (tankyrase 1 (TNKS 1); [2]): < 0.02 µM
IC50 (tankyrase 2 (TNKS 2); [3]): < 0.02 µM
GI50 [1, 4]: 0.6 to 1 µM
SMILES: CN1CCCc2c1nc(N1CCC3(CC1)C(=O)N(C)c1cc(OCC(=O)NS(C)(=O)=O)cc(F)c13)[nH]c2=O [Example 427, 2-{[4-fluoro-1-methyl-1′-(8-methyl-4-oxo-3,4,5,6,7,8-hexahydro-pyrido[2,3-d]pyrimi-din-2-yl)-2-oxospiro [indoline-3,4′-piperidin]-6-yl]oxy}-N-(methyl-sulfonyl)acetamide]

IC50 (tankyrase 1 (TNKS 1); [2]): 0.02 to 0.2 µM
IC50 (tankyrase 2 (TNKS 2); [3]): 0.02 to 0.2 µM
GI50 [1, 4]: 0.1 to 0.6 µM
SMILES: COCCN1CCN(c2cc(F)c3c(c2)N(C)C(=O)C32CCN(c3nc4c(c(=O)[nH]3)CCCN4C)CC2)CC1 [Example 397, 4-fluoro-6-(4-(2-methoxy-ethyl)piperazin-1-yl)-1-methyl-1′-(8-methyl-4-oxo-3,4,5,6,7,8-hexahydro-pyrido [2,3-d]pyrimidin-2-yl) spiro[indoline-3,4′-piperidin]-2(1H)-one]

IC50 (tankyrase 1 (TNKS 1); [2]): < 0.02 µM
IC50 (tankyrase 2 (TNKS 2); [3]): < 0.02 µM
GI50 [1, 4]: < 0.1 µM
SMILES: C[C@@H]1CN(c2cc(F)c3c(c2)N(C)C(=O)C32CCN(c3nc4c(c(=O)[nH]3)CCCN4C)CC2)C[C@H](C)O1 [Example 463, 6-[cis-2,6-dimethylmorpholin-4-yl]-4-fluoro-1′-(8-methyl-4-oxo-3,4,5,6,7,8-hexahydropyrido[2,3-d]pyrimidin-2-yl)-1-methyl-spiro[indole-3,4′-piperidine]-2(1H)-one]

IC50 (tankyrase 1 (TNKS 1); [5]): < 0.02 µM
IC50 (tankyrase 2 (TNKS 2); [6]): < 0.02 µM
GI50 [1, 7]: 0.1 to 0.6 µM
SMILES: CN1CCCc2c1nc(N1CCC3(CC1)C(=O)N(C)c1cc(OCCN4CCCCC4)cc(Cl)c13)[nH]c2=O [Example 376, 4-chloro-1-methyl-1′-(8-methyl-4-oxo-3,4,5,6,7,8-hexahydropy-rido[2,3-d]pyrimidin-2-yl)-6-(2-(piperidin-1-yl)ethoxy)spiro [indoline-3,4′-piperidin]-2-one]

IC50 (tankyrase 1 (TNKS 1); [5]): < 0.02 µM
IC50 (tankyrase 2 (TNKS 2); [6]): < 0.02 µM
GI50 [1, 7]: 0.1 to 0.6 µM
SMILES: CN1CCCc2c1nc(N1CCC3(CC1)C(=O)N(CCO)c1cc(F)cc(F)c13)[nH]c2=O [Example 340, 4,6-difluoro-1-(2-hydroxyethyl)-1′-(8-methyl-4-oxo-3,4,5,6,7,8-hexahydro-pyrido[2,3-d]pyrimidin-2-yl)spiro [indoline-3,4′-piperidin]-2-one]

IC50 (tankyrase 1 (TNKS 1); [2]): < 0.02 µM
IC50 (tankyrase 2 (TNKS 2); [3]): < 0.02 µM
GI50 [1, 4]: 0.1 to 0.6 µM
SMILES: C[C@@H]1CN(c2cc(F)c3c(c2)N(C)C(=O)C32CCN(c3nc4c(c(=O)[nH]3)CCCN4C)CC2)C[C@H](C)N1 [Example 390, 6-(cis-3,5-dimethyl-piperazin-1-yl)-4-fluoro-1-methyl-1′-(8-methyl-4-oxo-3,4,5,6,7,8-hexahydropyrido [2,3-d]pyrimi-din-2-yl) spiro[indoline-3,4′-piperidin]-2(1H)-one]

IC50 (tankyrase 1 (TNKS 1); [2]): < 0.02 µM
IC50 (tankyrase 2 (TNKS 2); [3]): < 0.02 µM
GI50 [1, 4]: 0.1 to 0.6 µM
SMILES: CN1CCCc2c1nc(N1CCC3(CC1)C(=O)N(C)c1cc(OCS(N)(=O)=O)cc(F)c13)[nH]c2=O [Example 454, 1-{[4-fluoro-1-meth-yl-1′-(8-methyl-4-oxo-3,4,5,6,7,8-hexahydropyrido [2,3-d]pyrimidin-2-yl)-2-oxospiro[indole-3,4′-piperidine]-6-yl]oxy}meth-anesulfonamide]

IC50 (tankyrase 1 (TNKS 1); [5]): < 0.02 µM
IC50 (tankyrase 2 (TNKS 2); [6]): < 0.02 µM
GI50 [1, 7]: 0.1 to 0.6 µM
SMILES: [2H]C([2H])([2H])N1CCCc2c1nc(N1CCC3(CC1)C(=O)N(CCO)c1cc(F)cc(F)c13)[nH]c2=O [Example 370, 4,6-difluoro-1-(2-hydroxyethyl)-1′-[8-(methyl-d3)-4-oxo-3,4,5,6,7,8-hexahydro-pyrido [2,3-d]pyrimidin-2-yl] spiro[in-doline-3,4′-piperidin]-2-one]

IC50 (tankyrase 1 (TNKS 1); [2]): < 0.02 µM
IC50 (tankyrase 2 (TNKS 2); [3]): < 0.02 µM
GI50 [1, 4]: 0.1 to 0.6 µM
SMILES: COCCN1C(=O)C2(CCN(c3nc4c(c(=O)[nH]3)CCCN4C)CC2)c2c(F)cc(OCCO)cc21 [Example 410, 4-fluoro-6-(2-hydroxy-ethoxy)-1-(2-methoxyethyl)-1′-(8-methyl-4-oxo-3,4,5,6,7,8-hexahydro-pyrido[2,3-d]pyrimi-din-2-yl)spiro[indoline-3,4′-piperidin]-2(1H)-one]

IC50 (tankyrase 1 (TNKS 1); [5]): < 0.02 µM
IC50 (tankyrase 2 (TNKS 2); [6]): < 0.02 µM
GI50 [1, 7]: < 0.1 µM
SMILES: CN1CCCc2c1nc(N1CCC3(CC1)C(=O)N(C)c1cc(OCC4COC4)cc(F)c13)[nH]c2=O [Example 388, 4-fluoro-1-methyl-1′-(8-methyl-4-oxo-3,4,5,6,7,8-hexahydropyrido [2,3-d]pyrimidin-2-yl)-6-(oxetan-3-ylmethoxy) spiro[indoline-3,4′-piperidin]-2-one]

IC50 (tankyrase 1 (TNKS 1); [2]): < 0.02 µM
IC50 (tankyrase 2 (TNKS 2); [3]): < 0.02 µM
GI50 [1, 4]: 0.1 to 0.6 µM
SMILES: N#CCOc1cc(F)c2c(c1)N(CC(F)(F)F)C(=O)C21CCN(c2nc3c(c(=O)[nH]2)CCCN3)CC1 [Example 435, 2-[4-fluoro-2-oxo-1′-(4-oxo-3,4,5,6,7-hex-ahydropyrido[2,3-d]pyrimidin-2-yl)-1-(2,2,2-trifluoroethyl)spiro [indole-3,4′-piperidine]-6-yl]oxyacetonitrile]

IC50 (tankyrase 1 (TNKS 1); [2]): 0.02 to 0.2 µM
IC50 (tankyrase 2 (TNKS 2); [3]): 0.02 to 0.2 µM
GI50 [1, 4]: 0.1 to 0.6 µM
SMILES: CN1CCCc2c1nc(N1CCC3(CC1)C(=O)N(C)c1cc(OCCNS(C)(=O)=O)cc(F)c13)[nH]c2=O [Example 432, N-(2-{[4-fluoro-1-methyl-1′-(8-methyl-4-oxo-3,4,5,6,7,8-hexahy-dropyrido[2,3-d]py-rimidin-2-yl)-2-oxospiro [indoline-3,4′-piperi-din]-6-yl]oxy}ethyl) methanesulfonamide]

Second part, the molecule before the results:

SMILES: CN1CCCc2c1nc(N1CCC3(CC1)C(=O)N(C)c1c(OC4CC5CCC(C4)N5C)ccc(Cl)c13)[nH]c2=O (stereo not drawn) [Example 425, 4-chloro-1′-(4-hydroxy-8-methyl-6,7-dihydro-5H-pyrido[2,3-d]pyrimidin-2-yl)-1-methyl-7-[(8-methyl-8-azabicyclo [3.2.1]octan-3-yl)oxy] spiro[indole-3,4′-piperidin]-2-one]
IC50 (tankyrase 1 (TNKS 1); [2]): < 0.02 µM
IC50 (tankyrase 2 (TNKS 2); [3]): < 0.02 µM
GI50 [1, 4]: 0.1 to 0.6 µM

SMILES: O=c1[nH]c(N2CCC3(CC2)CN(Cc2cccnc2)c2cc(F)cc(F)c23)nc2c1CCCC2 [Example 251, 2-[4,6-difluoro-1-(pyridin-3-yl)methyl-spiro [indoline-3,4′-piperidin]-1′-yl]-5,6,7,8-tetrahydro-quinazolin-4(3H)-one]
IC50 (tankyrase 1 (TNKS 1); [5]): < 0.02 µM
IC50 (tankyrase 2 (TNKS 2); [6]): < 0.02 µM
GI50 [1, 7]: 0.1 to 0.6 µM

SMILES: O=c1[nH]c(N2CCC3(CC2)CN(Cc2ccccn2)c2cc(F)cc(F)c23)nc2c1CCCC2 [Example 253, 2-[4,6-difluoro-1-(pyridin-2-yl)methyl-spiro [indoline-3,4′-piperidin]-1′-yl]-5,6,7,8-tetrahydro-quinazolin-4(3H)-one]
IC50 (tankyrase 1 (TNKS 1); [5]): < 0.02 µM
IC50 (tankyrase 2 (TNKS 2); [6]): < 0.02 µM
GI50 [1, 7]: 0.1 to 0.6 µM

SMILES: COc1ccc(Cl)c2c1N(CCC(=O)N1CCn3c(C(F)(F)F)cnc3C1)C(=O)C21CCN(c2nc3c(c(=O)[nH]2)CCCN3C)CC1 [Example 445, 4-chloro-1′-(4-hy-droxy-8-methyl-6,7-dihdyro-5H-py-rido[2,3-d]pyrimi-din-2-yl)-7-meth-oxy-1-[3-oxo-3-[3-(trifluoromethyl)-6,8-dihydro-5H-imidazo[1,2-a]py-razin-7-yl]propyl] spiro[indole-3,4′-piperidine]-2-one]
IC50 (tankyrase 1 (TNKS 1); [2]): < 0.02 µM
IC50 (tankyrase 2 (TNKS 2); [3]): < 0.02 µM
GI50 [1, 4]: 0.1 to 0.6 µM

SMILES: CN1CCCc2c1nc(N1CCC3(CC1)C(=O)N(C)c1c(OCCNC(C)(C)C)ccc(F)c13)[nH]c2=O [Example 437, 7-[2-(tert-butylamino)ethoxy]-4-fluoro-1′-(4-hydroxy-8-methyl-6,7-dihydro-5H-pyrido [2,3-d]pyrimidin-2-yl)-1-methylspiro[indole-3,4′-piperidine]-2-one]
IC50 (tankyrase 1 (TNKS 1); [2]): 0.02 to 0.2 µM
IC50 (tankyrase 2 (TNKS 2); [3]): 0.02 to 0.2 µM
GI50 [1, 4]: 0.1 to 0.6 µM

SMILES: CN(C)CCOc1ccc(Cl)c2c1N(C)C(=O)C21CCN(c2nc3c(c(=O)[nH]2)CCCN3C)CC1 [Example 396, 4-chloro-7-[2-(dimethylamino)ethoxy]-1-methyl-1′-(8-methyl-4-oxo-3,4,5,6,7,8-hexahydro-pyrido [2,3-d]pyrimidin-2-yl)spiro [indoline-3,4′-piperidin]-2(1H)-one]
IC50 (tankyrase 1 (TNKS 1); [2]): < 0.02 µM
IC50 (tankyrase 2 (TNKS 2); [3]): < 0.02 µM
GI50 [1, 4]: 0.1 to 0.6 µM

SMILES: CN1CCCc2c1nc(N1CCC3(CC1)CN(CCO)c1cc(F)cc(F)c13)[nH]c2=O [Example 338, 2-[4,6-difluoro-1-(2-hydroxyethyl)spiro [indoline-3,4′-piperidin]-1′-yl]-8-methyl-5,6,7,8-tetrahydro-pyrido [2,3-d] pyrimidin-4(3H)-one]
IC50 (tankyrase 1 (TNKS 1); [5]): 0.02 to 0.2 µM
IC50 (tankyrase 2 (TNKS 2); [6]): < 0.02 µM
GI50 [1, 7]: 0.1 to 0.6 µM

SMILES: CN1C(=O)C2(CCN(c3nc4c(c(=O)[nH]3)CCCC4)CC2)c2c(Cl)cc(OCCCN3CCOCC3)cc21 [Example 334]
IC50 (tankyrase 1 (TNKS 1); [5]): < 0.02 µM
IC50 (tankyrase 2 (TNKS 2); [6]): < 0.02 µM
GI50 [1, 7]: 0.6 to 1 µM

SMILES: CN1CCCc2c1nc(N1CCC3(CC1)C(=O)N(C)c1cc(N4CC5CCC(C4)N5)cc(F)c13)[nH]c2=O [Example 391, 6-(3,8-diazabicyclo [3.2.1]octan-3-yl)-4-fluoro-1-methyl-1′-(8-methyl-4-oxo-3,4,5,6,7,8-hexahydro-pyrido[2,3-d]pyrimidin-2-yl) spiro[indoline-3,4′-piperidin]-2(1H)-one]
IC50 (tankyrase 1 (TNKS 1); [2]): < 0.02 µM
IC50 (tankyrase 2 (TNKS 2); [3]): < 0.02 µM
GI50 [1, 4]: 0.6 to 1 µM
